The values that follow come from ChEMBL document CHEMBL1201862, “PubChem BioAssay data set” (2004).

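Method: 48-hour compound exposure of cells in 96-well plates, five concentrations, linear interpolation of endpoints. GI50: concentration for 50% inhibition of growth.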 Activity calls are given as the source filed them. Rule as the data show it: active = GI50 up to about 1.1 µM and inactive = higher.

What all share (assay): NCI anticancer screen, dose series, 48 h
Assay [1] concerns 786-0.
For assay [2], the system named is LOX IMVI.
Assay [3] relates to OVCAR-4.
For assay [4], the system named is A498.
Assay [5] deals with EKVX.
Assay [6] concerns K562.
The test system of assay [7] is ACHN.
Assay [8] deals with HT-29.
In assay [9] the test system is SK-OV-3.
In assay [10] the test system is SNB-19.
Assay [11] has as its system TK-10.
Assay [12] has as its system SF-539.
Assay [13] has as its system Malme-3M.
The subject of assay [14] is SF-295.
The test system of assay [15] is UO-31.
For assay [16], the system named is MDA-N.
Assay [17] concerns PC-3.
Assay [18] concerns DU-145.
Assay [19] concerns MCF7.

With `Nc1nc(O)c2c(ncn2CC(O)CO)n1` (stereo not given), the GI50 in [1], in assay [2], in assay [3], in assay [4], in assay [5] and in assay [6] was > 100 µM (inactive) throughout. For the same compound, the GI50 in assay [7], in [8], in assay [9], in assay [10], in assay [11] and in assay [12] was > 100 µM (inactive) throughout. The GI50 in assay [13], in assay [14] and in assay [15] was > 100 µM (inactive) throughout.

On to `CCN(CC)CC(C)(C)C(=O)/C=C/c1ccc(/C=C/C(=O)C(C)(C)CN(CC)CC)cc1`, for which the GI50 in assay [16] was 0.44 µM (active); in assay [17], 0.414 µM (active); in assay [1] it was 0.182 µM (active); in assay [2] it was 0.263 µM (active); in [4], 1.7 µM (inactive); in assay [5] it was 1.63 µM (inactive). The GI50 in [6] is 0.0935 µM (active); in assay [7] it was 1.34 µM (inactive); in assay [8] it was 0.211 µM (active); in assay [9], 2.09 µM (inactive); in assay [10], 1.53 µM (inactive); in assay [11] it was 1.19 µM (inactive). The GI50 in assay [12] is 1.2 µM (inactive); in assay [13], 1.12 µM (inactive); in [18], 2.01 µM (inactive); in [14] it was 1.22 µM (inactive); in [15], 1.8 µM (inactive); in assay [19] it was 0.233 µM (active).

Consider `CNC(=O)CCNC(=O)CCC(=O)OC`, for which the GI50 in assay [16], in assay [17], in assay [1], in assay [3], in assay [4] and in assay [6] was > 100 µM (inactive) throughout. In addition, the GI50 in [7], in assay [8], in [9], in assay [10], in assay [11] and in [12] was > 100 µM (inactive) in each case. The GI50 in [18], in [14], in [15] and in assay [19] was > 100 µM (inactive) throughout.

On to `CN(C)CCNc1ccc([N+](=O)[O-])c2nc3ccccc3c(N)c12`, for which the GI50 is 0.585 µM (active) in assay [16]; 0.405 µM (active) in [17]; 0.535 µM (active) in assay [1]; 0.375 µM (active) in assay [2]; 0.74 µM (active) in assay [3]; 0.607 µM (active) in [5]. Further, the GI50 was 0.341 µM (active) in assay [6]; 0.313 µM (active) in assay [7]; 0.318 µM (active) in assay [8]; 0.152 µM (active) in assay [9]; 0.895 µM (active) in [10]; 2.53 µM (inactive) in [11]. Further, the GI50 is 0.536 µM (active) in [12]; 0.443 µM (active) in [13]; 0.804 µM (active) in assay [18]; 0.711 µM (active) in assay [14]; 0.757 µM (active) in [15]; > 10 µM (inactive) in [19].

With `COc1ccc(NC(=O)C2C(=O)N(c3ccc(OC)cc3)C(=O)/C2=N/O)cc1` (stereo not given), the GI50 in [1] was 20.1 µM (inactive); in assay [2], 57.8 µM (inactive); in assay [3], 17.2 µM (inactive); in assay [4] it was 30.7 µM (inactive); in [5], 32.2 µM (inactive); in assay [6], > 100 µM (inactive). Besides, the GI50 in [7] is 21.8 µM (inactive); in assay [8], 38.6 µM (inactive); in assay [9] it was 20.2 µM (inactive); in assay [10], 29.4 µM (inactive); in assay [11], 23.9 µM (inactive); in assay [12], 19.6 µM (inactive). Besides, the GI50 in assay [13] is 20.4 µM (inactive); in assay [14], 26.4 µM (inactive); in [15], 22.2 µM (inactive).

As to `CN(C)C(n1cc2c(c1)-c1ccc(Cl)cc1C(c1ccccc1F)=NC2)n1cc2c(c1)-c1ccc(Cl)cc1C(c1ccccc1F)=NC2`, the GI50 in assay [16] is 18.4 µM (inactive); in [17] it was 46.6 µM (inactive); in assay [1], > 100 µM (inactive); in assay [2], 12 µM (inactive); in assay [3], > 100 µM (inactive); in assay [4] it was 8.17 µM (inactive). The GI50 in assay [5] was > 100 µM (inactive); in [6], > 100 µM (inactive); in assay [7], 63.2 µM (inactive); in [8], 14.3 µM (inactive); in assay [9] it was > 100 µM (inactive); in assay [10], > 100 µM (inactive). The GI50 in assay [12] was > 100 µM (inactive); in assay [13] it was > 100 µM (inactive); in assay [18], 54 µM (inactive); in assay [14], 26.3 µM (inactive); in assay [15], 97.3 µM (inactive); in [19], 64.3 µM (inactive).

With `COC(=O)[C@H]1ON2O[C@@H](O[C@H]3CCCC[C@@H]3C(C)(C)c3ccccc3)C[C@@H]3CC[C@H]1[C@@]32C`, the GI50 in [16], in assay [1], in [2], in assay [4], in assay [5] and in assay [6] was > 100 µM (inactive) throughout. Further, the GI50 in assay [7], in assay [8], in [9], in assay [11], in assay [18] and in assay [14] was > 100 µM (inactive) each time. Also, the GI50 in assay [15] and in assay [19] was > 100 µM (inactive) each time.

`O=C(/C=C(\C(=O)c1cccs1)c1cccs1)c1ccc(C(=O)/C=C(\C(=O)c2cccs2)c2cccs2)cc1`: the GI50 in assay [17], in assay [1], in assay [3], in assay [5], in [6] and in assay [7] was > 100 µM (inactive) each time. Also, the GI50 in assay [8], in assay [9], in [10], in assay [11], in assay [12] and in assay [18] was > 100 µM (inactive) each time. Moreover, the GI50 in [14], in assay [15] and in [19] was > 100 µM (inactive) throughout.

`O=C(CN1CCN(c2ccccc2)CC1)N1CCc2c([nH]c3ccccc23)C1c1cccnc1` (stereo not given): the GI50 was 15.3 µM (inactive) in [1]; > 73.1 µM (inactive) in assay [2]; > 29.4 µM (inactive) in assay [3]; > 100 µM (inactive) in assay [4]; > 100 µM (inactive) in assay [5]; > 76.4 µM (inactive) in assay [6]. Moreover, the GI50 was 51.8 µM (inactive) in assay [7]; > 53.5 µM (inactive) in assay [8]; 25.8 µM (inactive) in assay [9]; 38.2 µM (inactive) in assay [10]; > 29.4 µM (inactive) in [11]; 16.7 µM (inactive) in assay [12]. The GI50 in assay [13] was > 100 µM (inactive); in assay [14] it was 23.7 µM (inactive); in assay [15], > 58.3 µM (inactive).

For the compound `OC1[C@H]([C@H]2CCCC[C@@H]2O)CCC[C@@H]1[C@@H]1CCCC[C@H]1O` (stereo not given in full), the GI50 in assay [1], in assay [2], in assay [3], in assay [4], in [5] and in assay [6] was > 100 µM (inactive) throughout. Moreover, the GI50 in assay [7], in assay [8], in assay [9], in [10], in assay [11] and in [12] was > 100 µM (inactive) throughout. The GI50 in assay [13], in assay [14] and in assay [15] was > 100 µM (inactive) in each case.

Regarding `CCCCCCCCCC(=O)N[C@H]1CCc2cc(OC)c(OC)c(OC)c2-c2ccc(SC)c(=O)cc21`, the GI50 was 0.0393 µM (active) in assay [1]; 0.043 µM (active) in assay [2]; 0.408 µM (active) in assay [3]; 0.0255 µM (active) in [4]; 0.0527 µM (active) in assay [5]; 0.0395 µM (active) in assay [6]. Besides, the GI50 in [7] was 0.0507 µM (active); in assay [8] it was 0.0261 µM (active); in assay [9], 0.0238 µM (active); in [10] it was 0.0329 µM (active); in assay [11], 0.759 µM (active); in assay [12], 0.0224 µM (active). Further, the GI50 in assay [13] is 0.0226 µM (active); in assay [14] it was 0.0274 µM (active); in [15], 0.231 µM (active).

For the compound `C=C1C(=O)O[C@@H]2[C@H]1CC[C@H](C)[C@]1(O)CCC(=O)[C@@]21C` [CORONOPILIN], the GI50 in [16], in [17], in assay [1], in [2], in [3] and in assay [5] was > 10 µM (inactive) each time. The GI50 in [6], in assay [8], in assay [9], in assay [10], in [11] and in assay [12] was > 10 µM (inactive) in each case. Also, the GI50 in assay [13] was > 10 µM (inactive); in assay [14], > 10 µM (inactive); in assay [15], 0.0094 µM (active); in assay [19] it was > 10 µM (inactive).
